Measured values as given in the supplement of paper PMC5579334.

Tests used:
HS-Sch-2 = experiment: relative IC50 (inflection point of fitted dose-response curve, CellTiter-Glo viability, 72 h; top asymptote may be below 50% inhibition); higher = less potent
Method in brief: (§1)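 MPNST cell lines and primary human Schwann cells (750–1000 cells per well) went into 384-well plates preprinted with each compound at five concentrations in 10-fold steps. Plates were incubated 72 h at 37 °C, 5% CO2. Viability was read as CellTiter-Glo ATP luminescence, scaled between vehicle and positive-control wells, with duplicates averaged where present. Percent inhibition is at the top concentration; drug sensitivity score and relative IC50 (censored at top concentration) come from four-parameter logistic fits.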

ST8814 [1] = experiment: as above
Method in brief: as §1

HSC2 [2] = experiment: as above
Method in brief: as §1

STS26T [3] = experiment: as above
Method in brief: as §1

S1507-2 = experiment: as above
Method in brief: as §1

S462 = experiment: as above
Method in brief: as §1

HSC1 [4] = experiment: as above
Method in brief: as §1

ST8814 [5] = experiment: relative IC50 (inflection point of fitted dose-response curve, CellTox-Green cytotoxicity, 72 h; top asymptote may be below 50%); higher = less potent
Method in brief: (§2)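 MPNST cell lines and primary human Schwann cells were incubated 72 h at 37 °C in 384-well plates holding five 10-fold compound dilutions. CellTox-Green was added before seeding at a final 1:1000 dilution and reported fluorescence from DNA released by disrupted cells. Signals were scaled to vehicle and positive-control wells, and cultures failing plate quality control were dropped. Drug sensitivity score and relative IC50 come from four-parameter logistic fits, with IC50 censored at the top concentration.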

HS-PSS [6] = experiment: as above
Method in brief: as §2

HSC2 [7] = experiment: as above
Method in brief: as §2

STS26T [8] = experiment: as above
Method in brief: as §2

HSC1 [9] = experiment: as above
Method in brief: as §2

HS-PSS [10] = experiment: relative IC50 (inflection point of fitted dose-response curve, CellTiter-Glo viability, 72 h; top asymptote may be below 50% inhibition); higher = less potent
Method in brief: as §1

YST-1 = experiment: as above
Method in brief: as §1

SMILES | relative IC50 (HS-Sch-2) | relative IC50 (ST8814 [1]) | relative IC50 (HSC2 [2]) | relative IC50 (STS26T [3]) | relative IC50 (S1507-2) | relative IC50 (S462) | relative IC50 (HSC1 [4]) | relative IC50 (ST8814 [5]) | relative IC50 (HS-PSS [6]) | relative IC50 (HSC2 [7]) | relative IC50 (STS26T [8]) | relative IC50 (HSC1 [9]) | relative IC50 (HS-PSS [10]) | relative IC50 (YST-1)
O=C(O)CCCCC(CCSCc1ccccc1)SCc1ccccc1 (stereo not given) [CPI-613] | > 10000 nM | > 10000 nM | > 10000 nM | > 10000 nM | > 10000 nM | > 10000 nM | > 10000 nM | > 10000 nM | > 10 µM | > 10 µM | > 10 µM | > 10 µM |  | 
CN(C)c1nc(N(C)C)nc(N(C)C)n1 [Altretamine] | > 10000 nM | > 10000 nM | > 10000 nM | > 10000 nM | > 10000 nM | > 10000 nM | > 10000 nM | > 10000 nM | > 10 µM | > 10 µM | > 10 µM | > 10 µM | > 10000 nM | > 10000 nM
Cc1ccc([N+](=O)[O-])cc1S(=O)(=O)N(C)/N=C/c1cnc2ccc(Br)cn12 [PIK-75] |  | 212 nM | 161 nM | 143 nM | 275 nM | 186 nM | 175 nM | 567 nM |  | 0.33 µM | 0.16 µM | 0.299 µM |  | 
CC(C)c1c(C(=O)Nc2ccccc2)c(-c2ccccc2)c(-c2ccc(F)cc2)n1CC[C@@H](O)C[C@@H](O)CC(=O)O [Atorvastatin] | 2210 nM | 2450 nM | 196 nM | 2090 nM | 2500 nM | 1280 nM | 319 nM | 3270 nM | > 10 µM | 0.234 µM | 3.51 µM | 0.368 µM | 1680 nM | 2320 nM
C[C@@H](C(=O)O)c1ccc(-c2ccccc2)c(F)c1 [Tarenflurbil] | > 10000 nM | > 10000 nM | > 10000 nM | > 10000 nM | > 10000 nM | > 10000 nM | > 10000 nM | > 10000 nM | > 10 µM | > 10 µM | > 10 µM | > 10 µM | > 10000 nM | > 10000 nM
CO[C@H]1C[C@@H]2CC[C@@H](C)[C@@](O)(O2)C(=O)C(=O)N2CCCC[C@H]2C(=O)O[C@H]([C@H](C)C[C@@H]2CC[C@@H](OCCO)[C@H](OC)C2)CC(=O)[C@H](C)/C=C(\C)[C@@H](O)[C@@H](OC)C(=O)[C@H](C)C[C@H](C)/C=C/C=C/C=C/1C [Everolimus] |  | 0.32 nM | 0.239 nM | 0.14 nM | 1.46 nM | 0.537 nM | 0.12 nM | > 100 nM | > 0.1 µM | > 0.1 µM | > 0.1 µM | > 0.1 µM |  | 5.94 nM
O=NN(CCCl)C(=O)NCCCl [Carmustine] | > 10000 nM | > 10000 nM | > 10000 nM | > 10000 nM | > 10000 nM | > 10000 nM | > 10000 nM | > 10000 nM | > 10 µM | > 10 µM | > 10 µM | > 10 µM |  | > 10000 nM
CC(=O)N(O)CCCCCNC(=O)CCC(=O)N(O)CCCCCNC(=O)CCC(=O)N(O)CCCCCN [Deferoxamine aq] |  | 1300 nM | 771 nM | 1420 nM | 931 nM | 1630 nM | 1470 nM | 3040 nM |  | > 10 µM | > 10 µM | > 10 µM |  | 
COc1cc(Nc2ncc3c(n2)-c2ccc(Cl)cc2C(c2c(F)cccc2OC)=NC3)ccc1C(=O)O [Alisertib] | 244 nM | 288 nM | 26.5 nM | 89.6 nM | 124 nM | 24.8 nM | 53.4 nM | 265 nM | > 10 µM | > 10 µM | 0.0404 µM | > 10 µM | 1560 nM | 31.1 nM
Cc1nc(Nc2ncc(C(=O)Nc3c(C)cccc3Cl)s2)cc(N2CCN(CCO)CC2)n1 [Dasatinib] | 84.9 nM | 43.9 nM | 81.7 nM | 25.8 nM | 53.8 nM | 41.3 nM | 48.7 nM | 29.4 nM | > 1 µM | > 1 µM | 0.052 µM | > 1 µM |  | 16.8 nM
Cc1c(CN2CCN(C(=O)[C@H](C)O)CC2)sc2c(N3CCOCC3)nc(-c3cnc(N)nc3)nc12 [GDC-0980] |  | 1060 nM | 469 nM | 486 nM | 447 nM | 617 nM | 636 nM | 2880 nM |  | > 10 µM | > 10 µM | > 10 µM |  | 
O=C(CCCCCCC(=O)Nc1ccc([C@H]2O[C@@H](CSc3nc(-c4ccccc4)c(-c4ccccc4)o3)C[C@@H](c3ccc(CO)cc3)O2)cc1)NO [Tubacin] | 2800 nM | 2970 nM | 2970 nM | 3310 nM | 3190 nM | 3160 nM | 3280 nM | 3070 nM |  | > 10 µM | 3.19 µM | > 10 µM | 1470 nM | 2010 nM
COc1cc2nccc(Oc3ccc(NC(=O)Nc4cc(C)on4)c(Cl)c3)c2cc1OC [Tivozanib] | 3870 nM | > 10000 nM | 1790 nM | 1870 nM | 18.9 nM | 828 nM | 1710 nM | 1900 nM | > 10 µM | > 10 µM | 1.89 µM |  | 3730 nM | 2260 nM
CC(C)C[C@H](NC(=O)[C@@H](COC(C)(C)C)NC(=O)[C@H](Cc1ccc(O)cc1)NC(=O)[C@H](CO)NC(=O)[C@H](Cc1c[nH]c2ccccc12)NC(=O)[C@H](Cc1cnc[nH]1)NC(=O)[C@@H]1CCC(=O)N1)C(=O)N[C@@H](CCCNC(=N)N)C(=O)N1CCC[C@H]1C(=O)NNC(N)=O [Goserelin] |  | > 10000 nM | > 10000 nM | > 10000 nM | > 10000 nM | > 10000 nM | > 10000 nM | > 10000 nM | > 10 µM | > 10 µM | > 10 µM | > 10 µM | > 10000 nM | > 10000 nM
